# According to publication PMC9369311, “Examination of Intracellular GPCR-Mediated Signaling with High Temporal Resolution” (International Journal of Molecular Sciences, 2022):
# Tests used:
# CNG channel (A2 homomer) = conditions: read-out: EC50 for opening the CNG channel, electrophysiological experiments, ref Ludwig et al., 1990; cited from earlier work
# DmOctβ1 receptor = biological target: T1, DmOctβ1 receptor (Drosophila melanogaster, UniProt Q9VCZ3); experiment: Stopped-flow flash photolysis of caged octopamine in Fluo-4-loaded flpTM-DmOctβ1 cells; assay type: cell-based; conditions: for response time after UV-flash: 10 µM caged compound, 50 ms flash, 100 µM IBMX
# T1 construct: expressed in transfected cells; host or cells: flpTM cells (HEK293 flpIn, Invitrogen #750-07, carrying the CNGA2 variant)
# T1 sequence (Q9VCZ3 1-508): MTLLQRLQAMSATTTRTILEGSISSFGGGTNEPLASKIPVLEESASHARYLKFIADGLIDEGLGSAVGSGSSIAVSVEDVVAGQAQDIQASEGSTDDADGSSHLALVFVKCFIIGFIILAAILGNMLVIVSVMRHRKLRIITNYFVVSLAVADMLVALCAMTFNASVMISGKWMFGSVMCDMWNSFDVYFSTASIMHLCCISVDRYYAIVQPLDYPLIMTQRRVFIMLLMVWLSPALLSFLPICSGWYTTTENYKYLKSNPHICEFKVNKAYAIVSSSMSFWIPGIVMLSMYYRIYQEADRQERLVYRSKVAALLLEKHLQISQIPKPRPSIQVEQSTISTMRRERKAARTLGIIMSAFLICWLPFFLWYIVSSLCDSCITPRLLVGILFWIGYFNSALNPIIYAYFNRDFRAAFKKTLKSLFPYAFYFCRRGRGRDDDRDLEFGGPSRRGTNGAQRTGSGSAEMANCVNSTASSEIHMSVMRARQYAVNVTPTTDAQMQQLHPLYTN
# Excerpt: Neutral density filters that regulate the transmission of light (5%, 25%, 50%, 80%, 100%) were installed, allowing application of different light intensities.
# In the previous stopped-flow experiments, we initiated the DmOctβ1 receptor-activated reaction cascade by mixing cells with increasing concentrations of octopamine. Now, we used a similar strategy but substituted the biogenic amine for a constant concentration of octopamine fused to a coumarin-based cage group ({8-[bis(carboxymethyl)aminomethyl]-6-bromo-7-hydroxycoumarin-4-yl}methoxycarbon-yl; BBHCMOC-octopamine) from which the biologically active octopamine was released by light flashes. The Fluo-4-loaded flpTM-DmOctβ1 cells were mixed with a final concentration of 10 µM BBHCMOC-octopamine in the cuvette of the stopped-flow apparatus. After 2 s, a UV-flash was triggered for 50 ms and the fluorescence intensities were recorded. The time when triggering the light flash was defined as time point t = 0. Different light intensities were successively applied (5%, 25%, 50%, 80%, 100% intensity). To avoid fluctuations in the [cAMP]i due to cell-endogenous phosphodiesterase activity, the experiments were performed in the presence of 100 µM IBMX. Figure 7 summarizes the results that were obtained with BBHCMOC-octopamine.
# For the photolysis of the caged compounds with ultraviolet (UV)-light, a Xe-flash lamp (JML-C2; Rapp Opto Electronics, Wedel, Germany) was coupled to the cuvette via an UV-light permeable light guide (Schott). A UV-2 interference filter was placed between the Xe-flash lamp and light guide to select for the UV-light needed for the photolysis of the caged compounds. Additionally, it prevents the photomultiplier from being hit by light that is able to pass the emission filter. […] To maximize the detection of the emission light, a test solution containing 50 nM of fluorescein in ES was added to the cuvette and the light guide was fixed to the Xe/Hg-lamp at a position where the photomultiplier detected maximal intensity.
# [1] = in vitro; read-out: dissociation constant (Kd) for Ca2+; cited from earlier work
smiles,measurement,setting,value
"Nc1ncnc2c1ncn2[C@@H]1O[C@@H]2COP(=O)(O)O[C@H]2[C@H]1O [cAMP, cyclic adenosine monophosphate]",EC50,CNG channel (A2 homomer),~2 µM
O=C(O)CN(CC(=O)O)Cc1c(O)c(Br)cc2c(COC(=O)NCC(O)c3ccc(O)cc3)cc(=O)oc12 (centres unmarked) [BBHCMOC-octopamine],response time after UV-flash,DmOctβ1 receptor; 5% light intensity,about 16 s
same,response time after UV-flash,DmOctβ1 receptor; 100% light intensity,6 s and ≈ 6 s
same,octopamine released by photolysis,"DmOctβ1 receptor; from 10 µM BBHCMOC-octopamine, based on quantum yield",approximately 1 µM
Cc1ccc(N(CC(=O)O)CC(=O)O)c(OCCOc2cc(-c3c4cc(F)c(=O)cc-4oc4cc(O)c(F)cc34)ccc2N(CC(=O)O)CC(=O)O)c1 [Fluo-4],Kd,[1],0.345 µM
